# Data reported in PubChem BioAssay (NCI).
#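 Each compound was tested at five concentrations against cells in 96-well plates for 48 hours. The concentration for full growth arrest is given as TGI.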
# Key:
# Assay in all cases: inhibition of tumour cell growth, NCI panel, 48 h
# K-562 leukemia = tested on: K-562 leukemia
# HOP-92 NSCLC = tested on: HOP-92 NSCLC
# MDA-N = tested on: MDA-N
# T-47D breast = tested on: T-47D breast
# SK-OV-3 ovarian = tested on: SK-OV-3 ovarian
# UACC-257 melanoma = tested on: UACC-257 melanoma
# SK-MEL-28 melanoma = tested on: SK-MEL-28 melanoma
# SW-620 colon = tested on: SW-620 colon
# TK-10 renal = tested on: TK-10 renal
# KM12 colon = tested on: KM12 colon
# LOX IMVI melanoma = tested on: LOX IMVI melanoma
# SNB-19 CNS = tested on: SNB-19 CNS
# SF-539 CNS = tested on: SF-539 CNS
# U251 CNS = tested on: U251 CNS
# HS 578T breast = tested on: HS 578T breast
# A498 renal = tested on: A498 renal
smiles,measurement,setting,value
CN(C)c1nc(=NCc2cccnc2)ss1,TGI,K-562 leukemia,> 10 µM
same,TGI,HOP-92 NSCLC,> 10 µM
same,TGI,MDA-N,> 10 µM
same,TGI,T-47D breast,> 10 µM
same,TGI,SK-OV-3 ovarian,> 10 µM
same,TGI,UACC-257 melanoma,> 10 µM
same,TGI,SK-MEL-28 melanoma,> 10 µM
same,TGI,SW-620 colon,> 10 µM
same,TGI,TK-10 renal,> 10 µM
same,TGI,KM12 colon,> 10 µM
same,TGI,LOX IMVI melanoma,> 10 µM
O=C(O)C1=NN(c2ccc(S(=O)(=O)O)cc2)C2(C1)SCC(=O)N2c1nc2ccccc2s1 (configuration not stated),TGI,K-562 leukemia,> 100 µM
same,TGI,SNB-19 CNS,> 100 µM
same,TGI,SF-539 CNS,> 100 µM
same,TGI,HOP-92 NSCLC,> 100 µM
same,TGI,T-47D breast,> 100 µM
same,TGI,U251 CNS,> 100 µM
same,TGI,SK-OV-3 ovarian,> 100 µM
same,TGI,HS 578T breast,> 100 µM
same,TGI,UACC-257 melanoma,> 100 µM
same,TGI,SK-MEL-28 melanoma,> 100 µM
same,TGI,SW-620 colon,> 100 µM
same,TGI,TK-10 renal,> 100 µM
same,TGI,KM12 colon,> 100 µM
same,TGI,A498 renal,> 100 µM
same,TGI,LOX IMVI melanoma,> 100 µM
COC(=O)N/N=C(/Cc1occc(=O)c1O)C(=O)Nc1ccc([N+](=O)[O-])cc1[N+](=O)[O-],TGI,K-562 leukemia,> 100 µM
same,TGI,SNB-19 CNS,> 100 µM
same,TGI,SF-539 CNS,> 100 µM
same,TGI,HOP-92 NSCLC,> 100 µM
same,TGI,U251 CNS,> 100 µM
same,TGI,SK-OV-3 ovarian,> 100 µM
same,TGI,UACC-257 melanoma,> 100 µM
same,TGI,SK-MEL-28 melanoma,> 100 µM
same,TGI,SW-620 colon,> 100 µM
same,TGI,TK-10 renal,> 100 µM
same,TGI,KM12 colon,> 100 µM
same,TGI,A498 renal,> 100 µM
same,TGI,LOX IMVI melanoma,> 100 µM
COC1=CC(=O)C2C(C1=O)C(c1ccc(OC)c(OC)c1)[C@H]2C (some centres not stated),TGI,K-562 leukemia,54.4 µM
same,TGI,SNB-19 CNS,> 100 µM
same,TGI,SF-539 CNS,> 100 µM
same,TGI,HOP-92 NSCLC,36.6 µM
same,TGI,U251 CNS,> 100 µM
same,TGI,SK-OV-3 ovarian,> 100 µM
same,TGI,UACC-257 melanoma,41.1 µM
same,TGI,SK-MEL-28 melanoma,39.3 µM
same,TGI,SW-620 colon,40.6 µM
same,TGI,TK-10 renal,33.3 µM
same,TGI,KM12 colon,> 100 µM
same,TGI,A498 renal,> 100 µM
same,TGI,LOX IMVI melanoma,40.4 µM
O=C1NC2C(CCO)CC=C[C@H]2c2cc3c(cc21)OCO3 (some centres not stated),TGI,K-562 leukemia,> 100 µM
same,TGI,SNB-19 CNS,> 100 µM
same,TGI,SF-539 CNS,> 100 µM
same,TGI,U251 CNS,> 100 µM
same,TGI,SK-OV-3 ovarian,> 100 µM
same,TGI,UACC-257 melanoma,> 100 µM
same,TGI,SK-MEL-28 melanoma,> 100 µM
same,TGI,SW-620 colon,> 100 µM
same,TGI,TK-10 renal,> 100 µM
same,TGI,KM12 colon,> 100 µM
same,TGI,LOX IMVI melanoma,> 100 µM
Fc1ccc2c3c([nH]c2c1)CCNC3,TGI,K-562 leukemia,> 100 µM
same,TGI,SNB-19 CNS,> 100 µM
same,TGI,SF-539 CNS,> 100 µM
same,TGI,HOP-92 NSCLC,85.9 µM
same,TGI,T-47D breast,> 100 µM
same,TGI,U251 CNS,> 100 µM
same,TGI,SK-OV-3 ovarian,> 100 µM
same,TGI,HS 578T breast,> 100 µM
same,TGI,UACC-257 melanoma,> 100 µM
same,TGI,SK-MEL-28 melanoma,> 100 µM
same,TGI,SW-620 colon,> 100 µM
same,TGI,TK-10 renal,> 100 µM
same,TGI,KM12 colon,> 100 µM
same,TGI,A498 renal,65.9 µM
same,TGI,LOX IMVI melanoma,> 100 µM
CC(C)N1[C@@H]2CCCC[C@H]2N(C(C)C)P1(=O)C(=O)/C=C/c1ccccc1,TGI,K-562 leukemia,> 100 µM
same,TGI,SNB-19 CNS,18.3 µM
same,TGI,SF-539 CNS,6.34 µM
same,TGI,HOP-92 NSCLC,6.53 µM
same,TGI,MDA-N,3.82 µM
same,TGI,U251 CNS,16.5 µM
same,TGI,HS 578T breast,4.94 µM
same,TGI,UACC-257 melanoma,13.5 µM
same,TGI,SK-MEL-28 melanoma,8.87 µM
same,TGI,TK-10 renal,12.9 µM
same,TGI,KM12 colon,10.2 µM
same,TGI,A498 renal,16.9 µM
same,TGI,LOX IMVI melanoma,4.55 µM
COC(=O)c1ccc(NCC2=CC(=O)C=CC2=O)cc1,TGI,K-562 leukemia,6.95 µM
same,TGI,SNB-19 CNS,28.2 µM
same,TGI,SF-539 CNS,24.5 µM
same,TGI,HOP-92 NSCLC,10.5 µM
same,TGI,MDA-N,24.2 µM
same,TGI,U251 CNS,28.7 µM
same,TGI,SK-OV-3 ovarian,30.3 µM
same,TGI,HS 578T breast,> 100 µM
same,TGI,UACC-257 melanoma,25.7 µM
same,TGI,SK-MEL-28 melanoma,30.2 µM
same,TGI,SW-620 colon,25.9 µM
same,TGI,TK-10 renal,22.7 µM
same,TGI,KM12 colon,28.6 µM
same,TGI,A498 renal,27.6 µM
same,TGI,LOX IMVI melanoma,17.8 µM
O=c1c2cc(S(=O)(=O)Nc3c(Cl)cccc3Cl)ccc2ncn1NS(=O)(=O)c1ccc2ccccc2c1,TGI,K-562 leukemia,> 62.5 µM
same,TGI,SNB-19 CNS,> 62.5 µM
same,TGI,SF-539 CNS,> 62.5 µM
same,TGI,HOP-92 NSCLC,> 62.5 µM
same,TGI,MDA-N,> 62.5 µM
same,TGI,U251 CNS,> 62.5 µM
same,TGI,SK-OV-3 ovarian,> 62.5 µM
same,TGI,HS 578T breast,> 62.5 µM
same,TGI,UACC-257 melanoma,> 62.5 µM
same,TGI,SK-MEL-28 melanoma,> 62.5 µM
same,TGI,SW-620 colon,> 62.5 µM
same,TGI,TK-10 renal,> 62.5 µM
same,TGI,KM12 colon,> 62.5 µM
same,TGI,LOX IMVI melanoma,> 62.5 µM
CC/C(SC)=[N+](\C)[O-],TGI,K-562 leukemia,> 100 µM
same,TGI,SNB-19 CNS,> 100 µM
same,TGI,SF-539 CNS,> 100 µM
same,TGI,HOP-92 NSCLC,> 100 µM
same,TGI,U251 CNS,> 100 µM
same,TGI,SK-OV-3 ovarian,> 100 µM
same,TGI,UACC-257 melanoma,> 100 µM
same,TGI,SK-MEL-28 melanoma,> 100 µM
same,TGI,SW-620 colon,> 100 µM
same,TGI,TK-10 renal,> 100 µM
same,TGI,KM12 colon,> 100 µM
same,TGI,A498 renal,> 100 µM
same,TGI,LOX IMVI melanoma,> 55.8 µM
CCN(CC)CCCCC1CCN(CC(=O)N2c3cc(Cl)ccc3NC(=O)CC2C)CC1 (configuration not stated),TGI,K-562 leukemia,> 100 µM
same,TGI,SNB-19 CNS,> 100 µM
same,TGI,HOP-92 NSCLC,> 100 µM
same,TGI,U251 CNS,> 100 µM
same,TGI,SK-OV-3 ovarian,> 100 µM
same,TGI,UACC-257 melanoma,> 100 µM
same,TGI,SK-MEL-28 melanoma,> 100 µM
same,TGI,SW-620 colon,> 100 µM
same,TGI,A498 renal,> 100 µM
same,TGI,LOX IMVI melanoma,> 100 µM
CCOC(=O)c1cc(C#N)[nH]c1-c1ccsc1,TGI,K-562 leukemia,93 µM
same,TGI,SNB-19 CNS,> 100 µM
same,TGI,SF-539 CNS,77.1 µM
same,TGI,HOP-92 NSCLC,> 100 µM
same,TGI,MDA-N,> 100 µM
same,TGI,U251 CNS,87.8 µM
same,TGI,SK-OV-3 ovarian,> 100 µM
same,TGI,HS 578T breast,55.8 µM
same,TGI,UACC-257 melanoma,> 100 µM
same,TGI,SK-MEL-28 melanoma,> 100 µM
same,TGI,SW-620 colon,> 100 µM
same,TGI,TK-10 renal,> 100 µM
same,TGI,KM12 colon,69.6 µM
same,TGI,A498 renal,> 100 µM
same,TGI,LOX IMVI melanoma,> 100 µM
CCN(CC)CCCNc1ncc(C)c2c1c1ccc3c(O)cccc3c1n2C,TGI,K-562 leukemia,4.64 µM
same,TGI,SNB-19 CNS,3.17 µM
same,TGI,SF-539 CNS,14.9 µM
same,TGI,HOP-92 NSCLC,26.6 µM
same,TGI,MDA-N,3.01 µM
same,TGI,T-47D breast,49.3 µM
same,TGI,U251 CNS,2.6 µM
same,TGI,SK-OV-3 ovarian,16.6 µM
same,TGI,UACC-257 melanoma,31 µM
same,TGI,SK-MEL-28 melanoma,17.5 µM
same,TGI,SW-620 colon,2.61 µM
same,TGI,TK-10 renal,22.9 µM
same,TGI,KM12 colon,3.15 µM
same,TGI,A498 renal,32 µM
same,TGI,LOX IMVI melanoma,2.64 µM
O=C1OC(CS(=O)(=O)c2ccccc2)CC1O (configuration not stated),TGI,K-562 leukemia,> 100 µM
same,TGI,SNB-19 CNS,> 100 µM
same,TGI,SF-539 CNS,> 100 µM
same,TGI,MDA-N,> 100 µM
same,TGI,U251 CNS,> 100 µM
same,TGI,SK-OV-3 ovarian,> 100 µM
same,TGI,UACC-257 melanoma,> 100 µM
same,TGI,SK-MEL-28 melanoma,> 100 µM
same,TGI,SW-620 colon,> 100 µM
same,TGI,TK-10 renal,> 100 µM
same,TGI,KM12 colon,> 100 µM
same,TGI,A498 renal,> 100 µM
same,TGI,LOX IMVI melanoma,> 100 µM
Cc1ccc(S(=O)(=O)Nn2c(O)c(C#N)c(-c3ccc(N(C)C)cc3)c(C#N)c2=O)cc1,TGI,K-562 leukemia,> 50 µM
same,TGI,SNB-19 CNS,> 50 µM
same,TGI,SF-539 CNS,> 50 µM
same,TGI,HOP-92 NSCLC,> 50 µM
same,TGI,MDA-N,> 50 µM
same,TGI,U251 CNS,> 50 µM
same,TGI,SK-OV-3 ovarian,27.4 µM
same,TGI,HS 578T breast,> 50 µM
same,TGI,UACC-257 melanoma,> 50 µM
same,TGI,SK-MEL-28 melanoma,> 50 µM
same,TGI,SW-620 colon,> 50 µM
same,TGI,TK-10 renal,> 50 µM
same,TGI,KM12 colon,> 50 µM
same,TGI,A498 renal,> 50 µM
same,TGI,LOX IMVI melanoma,> 50 µM
CC1=C2CN(C(=O)OCC(C)C)CCC2C2=C(C(=O)c3ccccc3C2=O)C1C (configuration not stated),TGI,K-562 leukemia,> 10 µM
same,TGI,HOP-92 NSCLC,> 10 µM
same,TGI,MDA-N,> 10 µM
same,TGI,T-47D breast,> 10 µM
same,TGI,SK-OV-3 ovarian,> 10 µM
same,TGI,UACC-257 melanoma,> 10 µM
same,TGI,SK-MEL-28 melanoma,> 10 µM
same,TGI,SW-620 colon,> 10 µM
same,TGI,TK-10 renal,> 10 µM
same,TGI,KM12 colon,> 10 µM
same,TGI,LOX IMVI melanoma,> 10 µM
